Experimental data taken from patent publication US20260297109A1, “COMPOUNDS AS SUMO ACTIVATING ENZYME INHIBITORS” (WIGEN BIOMEDICINE TECHNOLOGY (SHANGHAI) CO., LTD., priority 2022, published 2026).

The molecules below were run against T1, SAE (Homo sapiens, UniProt Q9UBT2) (assay: SUMO IF: in vitro inhibitory activity assay against SAE in HCT116 cells (SUMO-2/3 immunofluorescence)). Conditions: class symbols, 6 h at 37° C.
T1 construct: endogenous in cells; host or cells: HCT116
T1 sequence (Q9UBT2 1-640): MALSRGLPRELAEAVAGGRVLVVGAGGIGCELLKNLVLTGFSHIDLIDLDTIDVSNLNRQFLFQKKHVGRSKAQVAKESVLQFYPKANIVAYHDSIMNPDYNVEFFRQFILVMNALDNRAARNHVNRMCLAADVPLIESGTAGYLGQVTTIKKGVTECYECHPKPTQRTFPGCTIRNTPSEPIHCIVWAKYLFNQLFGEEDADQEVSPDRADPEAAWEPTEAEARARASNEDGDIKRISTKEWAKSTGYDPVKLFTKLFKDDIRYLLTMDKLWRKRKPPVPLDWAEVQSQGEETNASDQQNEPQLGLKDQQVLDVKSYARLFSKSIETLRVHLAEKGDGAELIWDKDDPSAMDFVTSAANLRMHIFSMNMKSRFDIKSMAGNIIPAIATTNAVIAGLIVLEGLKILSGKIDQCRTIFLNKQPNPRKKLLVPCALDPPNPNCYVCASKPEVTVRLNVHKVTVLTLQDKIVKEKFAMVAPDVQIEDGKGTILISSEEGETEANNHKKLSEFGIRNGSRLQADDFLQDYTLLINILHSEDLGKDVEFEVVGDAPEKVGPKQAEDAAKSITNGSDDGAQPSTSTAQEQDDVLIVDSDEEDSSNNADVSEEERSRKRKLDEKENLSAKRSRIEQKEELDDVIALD
T1 sequence (Q9UBE0 1-346): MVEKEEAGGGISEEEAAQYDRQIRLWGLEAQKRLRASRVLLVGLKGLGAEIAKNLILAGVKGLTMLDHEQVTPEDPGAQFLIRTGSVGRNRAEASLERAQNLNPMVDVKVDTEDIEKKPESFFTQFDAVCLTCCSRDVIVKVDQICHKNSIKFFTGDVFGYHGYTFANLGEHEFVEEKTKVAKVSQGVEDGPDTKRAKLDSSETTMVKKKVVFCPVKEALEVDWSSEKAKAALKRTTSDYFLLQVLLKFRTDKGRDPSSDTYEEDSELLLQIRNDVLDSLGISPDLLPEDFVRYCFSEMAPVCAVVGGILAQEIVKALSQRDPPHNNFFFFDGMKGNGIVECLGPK
Format: cell-based
Method in brief: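 HCT116 cells were treated with compound for 6 h at 37 °C, then PFA-fixed, Triton-permeabilised and BSA-blocked. They were stained overnight at 4 °C with anti-SUMO-2/3 (18H8) rabbit mAb (1:400), then with FITC anti-rabbit IgG (1:300). Fluorescence versus DMSO gave inhibition rate and IC50.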

Row | SMILES | IC50 [nM]
1 | NS(=O)(=O)OC[C@H]1[C@H](F)[C@@H](Nc2ncncc2C(=O)c2cc3c(s2)CCC[C@]32NCCc3cc(Cl)c(F)cc32)C[C@@H]1O [Compound 677] | ≤ 50
2 | NS(=O)(=O)OC[C@H]1[C@H](F)[C@@H](Nc2ncncc2C(=O)c2cc3c(s2)CC2(CC2)CC32NCCc3ccc(Cl)cc32)C[C@@H]1O (stereo partly drawn) [Compound 615] | ≤ 50
3 | C=Cc1sc(C(=O)c2cncnc2N[C@H]2C[C@H](O)[C@@H](COS(N)(=O)=O)[C@@H]2F)cc1C1NCCc2ccc(Cl)cc21 (stereo partly drawn) [Compound 261] | 50 to 200
4 | NS(=O)(=O)OC[C@H]1[C@H](F)[C@@H](Nc2ncncc2C(=O)c2nc3c(s2)CSC[C@]32NCCc3ccc(Cl)cc32)C[C@@H]1O [Compound 593] | 50 to 200
5 | NS(=O)(=O)OC[C@H]1[C@H](F)[C@@H](Nc2ncncc2C(=O)c2cc3c(s2)C(F)=C[C@@]32NCCc3ccc(F)cc32)C[C@@H]1O [Compound 619] | > 200
6 | Cc1sc(C(=O)c2cncnc2N[C@H]2C[C@H](O)[C@@H](COS(N)(=O)=O)[C@@H]2F)cc1C1NCC2(CC2)c2ccc(Cl)cc21 (stereo partly drawn) [Compound 265] | 50 to 200
7 | NS(=O)(=O)OC[C@H]1[C@H](F)[C@@H](Nc2ncncc2C(=O)c2cc3c(s2)CCC32NCCc3ccc(Cl)cc32)C[C@@H]1O (stereo partly drawn) [Compound 130] | 50 to 200
8 | Cc1sc(C(=O)c2cncnc2N[C@H]2C[C@H](O)[C@@H](COS(N)(=O)=O)[C@@H]2F)cc1C1NCCc2ccc(C3CC3)cc21 (stereo partly drawn) [Compound 242] | 50 to 200
9 | COc1cc2c(cc1Cl)C1(CCc3sc(C(=O)c4cncnc4N[C@H]4C[C@H](O)[C@@H](COS(N)(=O)=O)[C@@H]4F)cc31)NCC2 (stereo partly drawn) [Compound 157] | 50 to 200
10 | CC1=CC2(NCCc3ccc(F)cc32)c2cc(C(=O)c3cncnc3N[C@H]3C[C@H](O)[C@@H](COS(N)(=O)=O)[C@@H]3F)sc21 (stereo partly drawn) [Compound 621] | 50 to 200
11 | COc1cc2c(cc1Cl)C1(CCCc3sc(C(=O)c4cncnc4N[C@H]4C[C@H](O)[C@@H](COS(N)(=O)=O)[C@@H]4F)cc31)NCC2 (stereo partly drawn) [Compound 115] | 50 to 200
12 | NS(=O)(=O)OC[C@H]1[C@H](F)[C@@H](Nc2ncncc2C(=O)c2cc3c(s2)C(F)(F)CC32NCCc3ccc(F)cc32)C[C@@H]1O (stereo partly drawn) [Compound 624] | 50 to 200
13 | NS(=O)(=O)OC[C@H]1[C@H](F)[C@@H](Nc2ncncc2C(=O)c2cc3c(s2)CC[C@]32OCCc3ccc(Cl)cc32)C[C@@H]1O [Compound 707] | ≤ 50
14 | NS(=O)(=O)OC[C@H]1[C@H](F)[C@@H](Nc2ncncc2C(=O)c2cc3c(s2)CCC[C@@]32OCCc3ccc(F)cc32)C[C@@H]1O [Compound 712] | > 200
15 | NS(=O)(=O)OC[C@H]1[C@H](F)[C@@H](Nc2ncncc2C(=O)c2nc3c(s2)CCC[C@@]32NCCc3ccc(Cl)cc32)C[C@@H]1O [Compound 586] | > 200
16 | COc1ccc2c(c1)C1(CCCc3sc(C(=O)c4cncnc4N[C@H]4C[C@H](O)[C@@H](COS(N)(=O)=O)[C@@H]4F)cc31)NCC2 (stereo partly drawn) [Compound 108] | > 200
17 | NS(=O)(=O)OC[C@H]1[C@H](F)[C@@H](Nc2ncncc2C(=O)c2cc3c(s2)CCC[C@]32NCCc3cc(F)c(Cl)c(F)c32)C[C@@H]1O [Compound 676] | ≤ 50
18 | NS(=O)(=O)OC[C@H]1[C@H](F)[C@@H](Nc2ncncc2C(=O)c2cc3c(s2)CCC[C@]32NCCc3ncc(Cl)cc32)C[C@@H]1O [Compound 605] | ≤ 50
19 | CC(C)N1Cc2sc(C(=O)c3cncnc3N[C@H]3C[C@H](O)[C@@H](COS(N)(=O)=O)[C@@H]3F)cc2[C@]2(C1)OCCc1ccc(Cl)cc12 [Compound 737] | ≤ 50
20 | NS(=O)(=O)OC[C@H]1[C@H](F)[C@@H](Nc2ncncc2C(=O)c2cc3c(s2)CCC[C@]32NCCc3ccc(C(F)(F)F)cc32)C[C@@H]1O [Compound 669] | 50 to 200
21 | CC(C)N1Cc2sc(C(=O)c3cncnc3N[C@H]3C[C@H](O)[C@@H](COS(N)(=O)=O)[C@@H]3F)cc2C2(C1)OCCc1ccc(Cl)cc12 (stereo partly drawn) [Compound 735] | 50 to 200
22 | NS(=O)(=O)OC[C@H]1[C@H](F)[C@@H](Nc2ncncc2C(=O)c2cc3c(s2)COCC32NCCc3ccc(Cl)cc32)C[C@@H]1O (stereo partly drawn) [Compound 103] | 50 to 200

Row | SMILES | IC50 [nM]
23 | NS(=O)(=O)OC[C@H]1[C@H](F)[C@@H](Nc2ncncc2C(=O)c2cc3c(s2)C=CC[C@]32NCCc3ccc(Cl)cc32)C[C@@H]1O [Compound 680] | ≤ 50
24 | NS(=O)(=O)OC[C@H]1[C@H](F)[C@@H](Nc2ncncc2C(=O)c2cc3c(s2)CC[C@]32NCC3(CC3)c3ccc(Cl)cc32)C[C@@H]1O [Compound 704] | 50 to 200
25 | NS(=O)(=O)OC[C@H]1[C@H](F)[C@@H](Nc2ncncc2C(=O)c2cc3c(s2)CCC[C@]32NCCc3ccncc32)C[C@@H]1O [Compound 678] | 50 to 200
26 | CN1Cc2sc(C(=O)c3cncnc3N[C@H]3C[C@H](O)[C@@H](COS(N)(=O)=O)[C@@H]3F)cc2[C@]2(C1)OCCc1ccccc12 [Compound 719] | 50 to 200
27 | NS(=O)(=O)OC[C@H]1[C@H](F)[C@@H](Nc2ncncc2C(=O)c2cc3c(s2)CCC[C@]32NC3(CC3)Cc3ccc(Cl)cc32)C[C@@H]1O [Compound 684] | 50 to 200
28 | NS(=O)(=O)OC[C@H]1[C@H](F)[C@@H](Nc2ncncc2C(=O)c2cc3c(s2)C=CCC32NCCc3ccc(Cl)cc32)C[C@@H]1O (stereo partly drawn) [Compound 120] | ≤ 50
29 | Cc1sc(C(=O)c2cncnc2N[C@H]2C[C@H](O)[C@@H](COS(N)(=O)=O)[C@@H]2F)cc1C1NC=Cc2ccc(Cl)cc21 (stereo partly drawn) [Compound 267] | 50 to 200
30 | CC1=C[C@@]2(NCCc3ccc(F)cc32)c2cc(C(=O)c3cncnc3N[C@H]3C[C@H](O)[C@@H](COS(N)(=O)=O)[C@@H]3F)sc21 [Compound 622] | > 200
31 | N#Cc1ccc2c(c1)C1(CCc3sc(C(=O)c4cncnc4N[C@H]4C[C@H](O)[C@@H](COS(N)(=O)=O)[C@@H]4F)cc31)NCC2 (stereo partly drawn) [Compound 136] | 50 to 200
32 | N#Cc1ccc2c(c1)[C@@]1(CCc3sc(C(=O)c4cncnc4N[C@H]4C[C@H](O)[C@@H](COS(N)(=O)=O)[C@@H]4F)cc31)NCC2 [Compound 138] | 50 to 200
33 | NS(=O)(=O)OC[C@H]1[C@H](F)[C@@H](Nc2ncncc2C(=O)c2cc3c(s2)CCC[C@@]32OCCc3ccc(Cl)cc32)C[C@@H]1O [Compound 685] | > 200
34 | CC1Cc2ccc(Cl)cc2C2(C=Cc3sc(C(=O)c4cncnc4N[C@H]4C[C@H](O)[C@@H](COS(N)(=O)=O)[C@@H]4F)cc32)N1 (stereo partly drawn) [Compound 1056] | 50 to 200
35 | Cc1sc(C(=O)c2cncnc2N[C@H]2C[C@H](O)[C@@H](COS(N)(=O)=O)[C@@H]2F)cc1C1NCCc2ccc(C(F)(F)F)cc21 (stereo partly drawn) [Compound 244] | 50 to 200
36 | NS(=O)(=O)OC[C@H]1[C@H](F)[C@@H](Nc2ncncc2C(=O)c2cc3c(s2)CC[C@]32NCCc3cc(F)c(Cl)c(F)c32)C[C@@H]1O [Compound 697] | ≤ 50
37 | NS(=O)(=O)OC[C@H]1[C@H](F)[C@@H](Nc2ncncc2C(=O)c2cc3c(s2)CCC32OCCc3ccc(Cl)cc32)C[C@@H]1O (stereo partly drawn) [Compound 168] | ≤ 50
38 | NS(=O)(=O)OC[C@H]1[C@H](F)[C@@H](Nc2ncncc2C(=O)c2cc3c(s2)COC[C@@]32NCCc3c(F)cc(Cl)cc32)C[C@@H]1O [Compound 574] | > 200
39 | NS(=O)(=O)OC[C@H]1[C@H](F)[C@@H](Nc2ncncc2C(=O)c2cc3c(s2)COCC32NCCc3ccc(Cl)c(Cl)c32)C[C@@H]1O (stereo partly drawn) [Compound 558] | 50 to 200
40 | Cc1sc(C(=O)c2cncnc2N[C@H]2C[C@H](O)[C@@H](COS(N)(=O)=O)[C@@H]2F)cc1C1NCCc2ccc(F)cc21 (stereo partly drawn) [Compound 235] | > 200
41 | N#Cc1ccc2c(c1)[C@]1(CCc3sc(C(=O)c4cncnc4N[C@H]4C[C@H](O)[C@@H](COS(N)(=O)=O)[C@@H]4F)cc31)OCC2 [Compound 751] | > 200
42 | CC(C)N1Cc2sc(C(=O)c3cncnc3N[C@H]3C[C@H](O)[C@@H](COS(N)(=O)=O)[C@@H]3F)cc2[C@]2(C1)OCCc1ccc(F)cc12 [Compound 734] | ≤ 50
43 | NS(=O)(=O)OC[C@H]1[C@H](F)[C@@H](Nc2ncncc2C(=O)c2cc3c(s2)COC[C@]32NCCc3ccc(F)cc32)C[C@@H]1O [Compound 102] | 50 to 200

Same assay, conditions: numeric values, 6 h at 37° C.

Row | SMILES | IC50 [nM]
44 | CC(C)N1Cc2sc(C(=O)c3cncnc3N[C@H]3C[C@H](O)[C@@H](COS(N)(=O)=O)[C@@H]3F)cc2[C@]2(C1)NCCc1ccc(Cl)cc12 [Compound 650] | 21.7
45 | NS(=O)(=O)OC[C@H]1[C@H](F)[C@@H](Nc2ncncc2C(=O)c2cc3c(s2)CC[C@@]32NCCc3ccc(Cl)cc32)C[C@@H]1O [Compound 131] | > 1000
